According to paper PMC11677424, “Early-Stage IM Treatment with the Host-Derived Immunostimulant CPDI-02 Increases Curative Protection of Healthy Outbred Mice Against Subcutaneous Infection with Community-Acquired Methicillin-Resistant Staphylococcus aureus USA300” (Pharmaceutics, 2024):
pEC50: −log10 of the molar value.

How the values were obtained:
[1] = system: healthy male and female outbred CD-1 mice; test: IM dose escalation in healthy CD-1 mice; assay type: in vivo
Method: Twenty-four CD-1 mice, approximately 4 weeks old, were randomized by weight and sex into four cohorts and then intramuscularly administered either vehicle alone (filter-sterilized 0.2 μm endotoxin-free PBS) or vehicle containing CPDI-02 twice a week over 4 weeks (eight doses total). CPDI-02 doses began at 15 mg/kg and subsequent doses were increased by a conventional modified Fibonacci scheme (increase over previous dose: 100%, 67%, 50%, 40%, 30%, 33%, 33%) to a final dose of 225 mg/kg. Mice were weighed prior to the study and prior to each dose administration. On each dose administration date, mice were assigned a Pain and Distress Assessment Score (Table S1). Four days after the last treatment, mice were euthanized, whole blood was collected for complete blood count (CBC) with differential (VetScan® HM5 Hematology Analyzer), and the thymus, heart, lungs, brain, liver, spleen, kidneys, femur bone marrow, popliteal lymph nodes, Peyer’s patches, and injection site muscle (left caudal thigh muscle) were collected. Collected tissues were fixed in 10% formalin for 48 h and then embedded in paraffin. Before embedment in paraffin, femur bone marrow samples underwent decalcification by shaking in 10% formic acid for 8 h. Paraffin samples were cut into sections and underwent a Hematoxylin and Eosin (H&E) stain, then analyzed for signs of inflammation and other tissue abnormalities utilizing a Nikon Eclipse E600 at 40× magnification, and imaged using a Lumenera Infinity 2 Microscope Camera.

[2] = system: primary human mononuclear phagocytes (MPs); settings: cited from earlier work
Source text: (§1) Complement Peptide-Derived Immunostimulant-02 (CPDI-02) (formerly EP67) is a novel, second-generation host-derived decapeptide agonist of […] (C5) Receptor 1 (C5aR1/C5a1R/CD88), which is based on the C-terminal pharmacophore of human Complement Peptide C5a (hC5a).

[3] = system: primary human neutrophils (NPs); settings: cited from earlier work
Source text: as §1

CA-MRSA USA300 LAC [4] = test: CA-MRSA burden of subcutaneous abscesses after single IM treatment; assay type: in vivo, Staphylococcus aureus; settings: female CD-1 mice, single IM 50 mg/kg at 6 h post-challenge, Day 1 post-challenge
Method: At 24 h post-challenge (Section 2.4: single IM treatment), mice were euthanized (n = 5 per cohort) and rear flanks were disinfected with 70% EtOH. Abscess and skin biopsies (Tru-Punch Sterile Disposable Biopsy Punch Razors, 8 mm^2, Sklar instruments 961130) were suspended in TSB [2 mL] and homogenized in C tubes (Miltenyi Biotec 130-093-237, Bergisch Gladbach, DE) using a gentleMACS Dissociator (Miltenyi Biotec 130-093-235, program B). Homogenized abscess tissues were serially diluted in PBS and plated on TSA plates and incubated at 37 °C for 24 h, and bacterial colonies were counted. Bacterial colony counts per abscess were normalized to starting tissue weights and compared using a Mann–Whitney test (nonparametric t-test). Sections of paraffin-embedded tissues collected above were also Gram-stained and analyzed on a Nikon Eclipse E600 (Minato City, Japan) at 200× magnification and imaged using a Lumenera Infinity 2 Microscope Camera (Ottawa, ON, Canada).

CA-MRSA USA300 LAC [5] = test: Curative treatment of female CD-1 mice infected SQ with CA-MRSA: abscess surface area by image analysis; assay type: in vivo, Staphylococcus aureus; settings: for effect on maximum abscess surface area or time to resolution vs vehicle alone: 6 treatments
Method: CA-MRSA USA300 LAC (Staphylococcus aureus Rosenbach, ATCC BAA-1756) was stored in 50% glycerol at −80 °C until use. To start a culture, a Tryptic Soy Agar (TSA; Remel) plate was streaked and incubated overnight at 37 °C. A single colony from the streaked agar plate was transferred to a 50 mL conical tube containing 30 mL of Tryptic Soy Broth (TSB; Remel) and incubated [37 °C] overnight while shaking [200 rpm]. The overnight culture was diluted [1:10] in TSB, incubated at 37 °C for ~2 h until A600 = 0.5 to 0.55, and pelleted [3000 g, 10 min] at 4 °C. The pellet was resuspended in PBS and pelleted as before and then resuspended in 0.05% (w/v) Cytodex-1 in sterile PBS (typical yield ~5 × 10^8 CFU/mL). MRSA concentration was confirmed by serial dilution in sterile PBS, dot plating on TSA plates, and incubation at 37 °C for 24 h before counting.
All procedures were approved by the University of Nebraska Medical Center Institutional Animal Care and Use Committee. Female outbred CD-1 mice (Charles Rivers, Strain Code 022, 4-6 weeks old) were acclimated in the animal facility for at least one week, and their rear flanks were shaved 24 h before the study. Mice were anesthetized with isoflurane and 0.100 mL of CA-MRSA stock solution (Section 2.3) was injected SQ (5 × 10^7 CFU total) from the left rear flank into the dorsal side. […] For IM (left caudal muscle) and SQ (left flank) administration, CPDI-02 was administered in 0.050 mL of sterile PBS [20 mg/mL] (volume adjusted to 50 mg/kg dose). For topical administration (TOP), CPDI-02 was applied to abscesses in 0.100 mL of ointment (3% w/v) (Section 2.2) using a positive displacement pipette [150 mg/kg dose]. For IV administration (tail vein), CPDI-02 was administered in 0.050 mL sterile PBS [5 mg/mL] (volume adjusted to 12.5 mg/kg dose). […] Mouse abscesses were imaged with reference scales daily over 10 days starting at 24 h post-challenge. Abscess surface areas were determined by image analysis (ImageJ®, ver.1.54h) and compared between vehicle and treatment group for each administration route over ten days post-challenge by repeated measurement with two-way ANOVA with Geisser–Greenhouse correction.

CSCC[C@H](NC(=O)[C@H](CC(=O)O)NC(=O)[C@H](CCCCN)NC(=O)[C@H](Cc1ccccc1)NC(=O)[C@H](CO)NC(=O)[C@@H](N)Cc1ccc(O)cc1)C(=O)N1CCC[C@H]1C(=O)N(C)[C@@H](CC(C)C)C(=O)N[C@H](C)C(=O)N[C@@H](CCCNC(=N)N)C(=O)O [CPDI-02]
weight gain or survival ([1]; male and female CD-1 mice, IM twice a week, 15 up to 225 mg/kg over 28 days, 8 doses, n = 6): did not affect
mice with signs of inflammation around the injection site ([1]; male mice, four days after final dose, H&E, vehicle none): 50%
mice with signs of inflammation around the injection site ([1]; mouse, in vivo): 83%
signs of inflammation in thymus, heart, lungs, brain, liver, spleen, kidneys, femur bone marrow, popliteal lymph nodes, Peyer's patches ([1]; mouse, in vivo): did not increase
platecrit vs vehicle alone ([1]; mouse, in vivo, 225 mg/kg): decreased
platelets vs vehicle alone ([1]; mouse, in vivo, 225 mg/kg): decreased
potency for activating MPs over NPs ([2]; primary human MPs vs primary human NPs): 10^3 fold
pEC50 ([2]; primary human MPs): 6.78
pEC50 [3]: 3.80
detectable CA-MRSA in subcutaneous abscesses (Gram staining) vs vehicle (CA-MRSA USA300 LAC [4]; histochemistry): qualitatively decreased
CA-MRSA CFU/g of abscess tissue (CA-MRSA USA300 LAC [4]; mean ± SD, vehicle 3 × 10^6 ± 2 × 10^6, SD): 1.8 × 10^6 ± 0.8 × 10^6 CFU/g of abscess tissue
effect of repeat treatment starting at 24 h post-challenge (CA-MRSA USA300 LAC [5]; regardless of administration route): no effect
maximum abscess surface area (Day 1 post-challenge) (CA-MRSA USA300 LAC [5]; repeat IM 50 mg/kg starting 6 h post-challenge, mean ± SEM, n = 10, vehicle 74 ± 11, p = 0.0052, SEM): 31 ± 8 mm^2
effect on maximum abscess surface area or time to resolution vs vehicle alone (CA-MRSA USA300 LAC [5]; repeat IV (tail vein) 12.5 mg/kg starting 6 h post-challenge): no effect
effect on maximum abscess surface area or time to resolution vs vehicle alone (CA-MRSA USA300 LAC [5]; repeat SQ (left flank) 50 mg/kg starting 6 h post-challenge): no effect
effect on maximum abscess surface area or time to resolution vs vehicle alone (CA-MRSA USA300 LAC [5]; repeat topical (TOP), 0.100 mL of 3% w/v ointment on abscess, 150 mg/kg, starting 6 h post-challenge): no effect
time to resolution vs vehicle alone (CA-MRSA USA300 LAC [5]; single IM 50 mg/kg at 6 h post-challenge, similar extent as repeated IM treatment): decreased
